Patent US9572807B2, “Protocols for treatment of major depressive disorder (MDD)” (NEURALSTEM, INC., priority 2014, dated 2017)

How the values were obtained:
Format in all cases: in vivo, human
[1] = test system: patients with symptomatic MDD; assay: Cognitive and Physical Functioning Questionnaire (CPFQ), Phase 1B study; details: FIG. 4
[2] = test system: patients with symptomatic MDD; assay: Symptoms of Depression Questionnaire (SDQ), Phase 1B study; details: for Cohen's d value, SDQ (ANCOVA): all test groups (n=18) vs placebo (n=6)
Procedure: (§1) A double-blind, placebo-controlled, multiple-ascending-dose study employing the compound of formula (1) was performed in patients with symptomatic MDD. Twenty-four subjects were recruited, with their diagnosis and illness severity confirmed through an independent, remote SAFER interview (Targum, S. D., et al., CNS Neurosci. Ther. (2008) 14:2-9) from the Massachusetts General Hospital (MGH) Clinical Trials Network and Institute (CTNI) raters. Each patient underwent a screening for eligibility (Day −37 to Day −6 or −3) and eligible patients were admitted into the unit on Day −5 to complete their wash-out and be reconfirmed for eligibility and for baseline assessments. The patients received daily dosing of formula (1) or placebo for 28 days starting on Day 1 and were followed for safety, pharmacokinetics (PK) and pharmacodynamics (PD) until discharge. At the conclusion of in-house dosing (Day 28), patients remained in the unit for up to 3 additional days, at the psychiatrist's discretion. On Day 35 (±3), Day 42 (±3), Day 49 (±3) and Day 70 (±3) outpatient follow-up visits took place. Patients returned to the unit for extensive follow-up on Day 56 (±3) and Day 84 (±3) (End-of-study).
(§2) The subjects were randomized into four groups of 6 patients each to receive 40 mg of formula (1) per dose administered orally in gelatin capsules once daily, twice daily or three times daily to provide 40 or 80 or 120 mg daily of formula (1) or placebo for 28 days. Each cohort included at least 3 female subjects. In this example, qEEG was used to characterize pharmacodynamic effects.
(§3) In this example, the results of the study of Example 1 were evaluated by the efficacy assessments that included the Montgomery-Asberg Depression Rating Scale (MADRS), the Clinician Global Impression-Improvement (CGI-I), the Symptoms of Depression Questionnaire (SDQ) and the Cognitive and Physical Functioning Questionnaire (CPFQ). […] These improvements persisted over time during the follow-up for MADRS, SDQ and CPFQ.
(§4) Baseline values were adjusted for initial differences and the results for the placebo group (n=6) and the tested groups (n=18) were collapsed. The sizes of the effects were estimated as Cohen's d group mean differences where d=0.20 indicates only a small difference, d=0.50 indicates a medium difference and d=0.80 indicates a large difference. Cohen's d values are described in Cohen, J. (1988) Statistical Power Analysis for the Behavioral Sciences (2nd ed.), Lawrence Erlbaum Associates. D values are used when the scale of a dependent variable is not inherently meaningful, the difference between means are considered in standardized units. That is, effect size is measured in terms of the number of standard deviations by which the means differ. Two commonly used measures are Hedges' g and Cohen's d. Both of these measures consist of the difference between means divided by the standard deviation. They differ only in that Hedges' g uses the version of the standard deviation formula in which division is by N−1, whereas Cohen's d uses the version in which division is by N.
(§5) Covariance is a measure of how much two variables change together and how strong the relationship is between them (Lenth, R. V., The American Statistician (2001) 55:187-193). Analysis of covariance (ANCOVA) is a general linear model which blends analysis of variance (ANOVA) and regression. ANCOVA evaluates whether population means of a dependent variable (DV) are equal across levels of a categorical independent variable (IV), while statistically controlling for the effects of other continuous variables that are not of primary interest, known as covariates (CV). Therefore, when performing ANCOVA, the DV means are adjusted to what they would be if all groups were equal on the CV. In the CGI-I assay, Day 7 was used as the baseline value; in the remaining assays, Day 0 was used as baseline.

[3] = test system: patients with symptomatic MDD; assay: Overall efficacy assessment in Phase 1B study
Procedure: as §1, with “On Day 35 (±3), Day 42 (±3), Day 49 (±3) and Day 70 (±3) outpatient follow-up visits took place. Patients returned to the unit for extensive follow-up on Day 56 (±3) and Day 84 (±3) (End-of-study).” left out
In this example, the results of the study of Example 1 were evaluated by the efficacy assessments that included the Montgomery-Asberg Depression Rating Scale (MADRS), the Clinician Global Impression-Improvement (CGI-I), the Symptoms of Depression Questionnaire (SDQ) and the Cognitive and Physical Functioning Questionnaire (CPFQ). […]

[4] = test system: patients with symptomatic MDD; assay: Montgomery-Asberg Depression Rating Scale (MADRS), Phase 1B study; details: for MADRS value: FIG. 2; for Cohen's d value, MADRS (ANCOVA): all test groups (n=18) vs placebo (n=6)
Procedure: as §1, §2, §3, §4, §5

[5] = test system: patients with symptomatic MDD; assay: Safety and tolerability in Phase 1B study
Procedure: as §1, §2
In addition to safety, pharmacokinetic and the behavioral ratings scales described in Example 2, qEEG measurements were obtained 6 hours post-dose on Days 14 and 28 for 20 minutes at rest. EEGs were recorded using 19-standard International 10/20 System scalp locations plus electromyography (EMG) and eye movement monitoring. Digital EEGs recorded using Cadwell Laboratories instrumentation, were reviewed to identify the presence of physiological and instrumentation prior to analyses. […]

[6] = Day 14, 1x = 40 mg/day oral (n=6)
[7] = Day 14, 2x = 80 mg/day oral (n=6)
[8] = Day 14, 3x = 120 mg/day oral (n=6)
[9] = Day 14, all three dose groups pooled (n=18)
[10] = Day 28, 1x = 40 mg/day oral (n=6)
[11] = Day 28, 2x = 80 mg/day oral (n=6)
[12] = Day 28, 3x = 120 mg/day oral (n=6)
[13] = Day 28, all three dose groups pooled (n=18)
[14] = Day 56 (follow-up after 28 days dosing), 1x = 40 mg/day oral
[15] = Day 56 (follow-up after 28 days dosing), 2x = 80 mg/day oral
[16] = Day 56 (follow-up after 28 days dosing), 3x = 120 mg/day oral
[17] = Day 56 (follow-up after 28 days dosing), all three dose groups pooled (n=18)
[18] = Day 84 (follow-up after 28 days dosing), 1x = 40 mg/day oral
[19] = Day 84 (follow-up after 28 days dosing), 2x = 80 mg/day oral
[20] = Day 84 (follow-up after 28 days dosing), 3x = 120 mg/day oral
[21] = Day 84 (follow-up after 28 days dosing), all three dose groups pooled
[22] = Day −5 (baseline before dosing), 1x = 40 mg/day group
[23] = Day −5 (baseline before dosing), 2x = 80 mg/day group
[24] = Day −5 (baseline before dosing), 3x = 120 mg/day group
[25] = Day −5 (baseline before dosing), all three dose groups pooled (n=18)

CC(C)CCNc1ncccc1C(=O)N1CCN(Cc2ccccc2)CC1 [formula (1)]
CPFQ value ([1]; 40 mg/day, control group (n=2) 3.75): 2.8 | CPFQ value ([1]; 120 mg/day, controls (n=2) 3.3): 2.6 | SDQ score ([2]; 40 mg/day, FIG. 3, placebo (n=2) 3.1): 2.5 | SDQ score ([2]; 80 mg/day, FIG. 3, controls (n=2) 3.5): 2.7 | SDQ score versus controls ([2]; 120 mg/day, at 28 days, FIG. 3): slightly higher than controls | SDQ Means [2, 6]: 3.1174 | SDQ Means [2, 7]: 2.8485 | SDQ Means [2, 8]: 2.822 | SDQ Means [2, 9]: 2.9293 | SDQ Means [2, 10]: 2.5795 | SDQ Means [2, 11]: 2.6856 | SDQ Means [2, 12]: 2.6439 | SDQ Means [2, 13]: 2.6364 | Cohen's d value, SDQ (ANCOVA) ([2]; Day 30): 0.90 | SDQ Means [2, 14]: 2.6023 | SDQ Means [2, 15]: 2.3371 | SDQ Means [2, 16]: 2.5909 | SDQ Means [2, 17]: 2.5101 | SDQ Means [2, 18]: 2.6364 | SDQ Means [2, 19]: 2.4508 | SDQ Means [2, 20]: 2.4318 | SDQ Means [2, 21]: 2.5107 | Cohen's d value, SDQ (ANCOVA) ([2]; Day 85): 1.10 | SDQ Means [2, 22]: 3.4508 | SDQ Means [2, 23]: 3.2652 | SDQ Means [2, 24]: 3.4242 | SDQ Means [2, 25]: 3.3801 | Depressive and cognitive symptoms across all measures ([3]; Day 28, two lower doses (40 mg/day and 80 mg/day)): clinically meaningful reduction in depressive and cognitive symptoms across all measures | Effect on condition of patients, further analysis ([3]; highest dose (120 mg/day)): effective in improving the condition of these patients | MADRS value ([4]; 40 mg/day, controls (n=2) 23.5): 12.5 | MADRS value ([4]; 80 mg/day, controls (n=2) 18): 15 | MADRS value ([4]; 120 mg/day, controls (n=2) 18): 16 | MADRS Means [4, 6]: 20.1667 | MADRS Means [4, 7]: 18.8333 | MADRS Means [4, 8]: 15.8333 | MADRS Means [4, 9]: 18.2778 | MADRS Means [4, 10]: 12.6667 | MADRS Means [4, 11]: 15 | MADRS Means [4, 12]: 16.5 | MADRS Means [4, 13]: 14.7222 | Cohen's d value, MADRS (ANCOVA) ([4]; Day 30): 0.95 | MADRS Means [4, 14]: 14.3333 | MADRS Means [4, 15]: 12 | MADRS Means [4, 16]: 11.3333 | MADRS Means [4, 17]: 12.5556 | MADRS Means [4, 18]: 15 | MADRS Means [4, 19]: 12 | MADRS Means [4, 20]: 10.8 | MADRS Means [4, 21]: 12.7059 | Cohen's d value, MADRS (ANCOVA) ([4]; Day 85): 0.84 | MADRS Means [4, 22]: 24.8333 | MADRS Means [4, 23]: 24.6667 | MADRS Means [4, 24]: 24.3333 | MADRS Means [4, 25]: 24.6111 | Serious adverse events ([5]; 40-120 mg/day oral for 28 days): No serious adverse events occurred | Tolerability ([5]; 40-120 mg/day oral for 28 days): well tolerated | Safety EEG recordings by visual inspection ([5]; pre vs post dose): no new findings
